What was measured:
[1] = Solubility detection of CAK01-CAK07; format: physicochemical
Text: The chlorinated monocarbonyl curcumin compounds CAK01-CAK07 prepared under the conditions of Example 1 were taken for nuclear magnetic resonance, mass spectrometry, solubility, and melting point detection.

[2] = ABTS free radical capture ability; format: biochemical; details: 20 min reaction in the dark
Experimental: 66.2 mg of K2S2O8 was weighed and placed in a 100 mL volumetric flask, pure water was added to the scale line to prepare a 2.45 mmol/L K2S2O8 solution. 192 mg of ABTS was accurately weighed and placed in a 25 mL volumetric flask, and the newly prepared K2S2O8 solution was added for dissolving and constant volume dilution, after standing in the dark for 20 h, the ABTS mother liquor was obtained. Before use, to make the measured value more accurate, the ABTS mother liquor needs to be diluted with a PBS solution of pH7.4 until the absorbance range of the ABTS working solution at 734 nm is 0.70±0.02.
Drug concentration screening: To avoid the complete removal of free radicals by excessive drug concentration and the inability to compare the ability to capture ABTS free radicals, a preliminary screening of drug concentration is required before the formal test. A gradient concentration of compound solution was prepared, and a gradient concentration of Vit C solution was prepared as a positive control. A total of 450 μL of ABTS working solution was accurately absorbed into a 1.5 mL EP tube, and 150 μL of the gradient solution of each group of drugs was added, after 20 min of reaction in the dark, 150 μL of the reaction solution was taken and placed in a 96-well plate, the absorbance was measured by a microplate reader. Three duplicate wells were set for each concentration, and the drug concentration with absorbance between 0.2-0.7 was selected for subsequent determination.
Determination operation: After the drug concentration screening was completed, 7 concentration gradient groups were set within this concentration range. A total of 450 μL of ABTS working solution was accurately absorbed into a 1.5 mL EP tube, and 150 μL of the gradient solution of each group of drugs was added. After 20 min of reaction in the dark, 150 μL of the reaction solution was taken and placed in a 96-well plate, the absorbance was measured by a microplate reader. Three duplicate wells were set for each concentration, the positive control group was a gradient solution of Vit C, and the blank control group was an equal volume of anhydrous ethanol.

[3] = test system: PC12 cells; assay: MTT toxicity (safety evaluation) on PC12 nerve cells; format: cell-based; details: for cytotoxicity to PC12 cells: 3.75-60 μM, 24 h and 48 h, in words
Experimental: The toxicity of each drug to PC12 cells was determined by MTT assay. The principle of the MTT colorimetric method: there is succinate dehydrogenase in the mitochondria of living cells, which can make exogenous MTT become blue-purple crystal formazan insoluble in water, this phenomenon cannot be observed in dead cells. The blue-purple crystal formazan can be dissolved by DMSO, and the absorbance value is measured by a microplate reader at a wavelength of 490 nm, which in turn reflects the number of living cells. […] The operation method is as follows:
The cells were resuscitated with DMEM high glucose medium containing 10% fetal bovine serum and cultured in a 5% CO2 cell incubator at 37° C., when the cells grew to the logarithmic growth phase, they were inoculated into a 96-well plate and cultured for 24 hours, each well was added with 100 μL of each compound solution at the corresponding gradient concentration (60, 30, 15, 7.5, 3.75 μM), after incubation in the incubator for 24 h or 48 h, 20 μL of MTT was added to continue incubation for 4 h, the supernatant was discarded and 150 μL of DMSO was added to dissolve the blue-purple crystals, after shaking for 10 min, the cell viability was detected by a microplate reader, and classified according to the cytotoxicity standard. The relevant calculation formula is as follows: […]

[4] = test system: PC12 cells; assay: Inhibition of H2O2-induced oxidative damage in PC12 cells; format: cell-based, rat; details: for effect on survival of H2O2-damaged PC12 cells: 24 h, in words
Experimental: After 24 hours of incubation in the incubator, the relative proliferation rates of the cells were calculated according to the method under Section 2.1.

[5] = test system: PC12 cells; assay: Inhibition of corticosterone (CORT)-induced PC12 cell damage; format: cell-based, rat; details: 3.75-60 μM drug with 514.6 μM CORT, 24 h, in words
[6] = test system: CUMS depression model mice; assay: Forced swimming test in CUMS depression model mice; format: in vivo, C57BL/6J mice; details: 10 mg/kg oral once a day
Text: (§1) After one week of adaptive feeding, the newly purchased mice were divided into a blank group and CUMS model group. The mice in the blank group were not subjected to behavioral intervention and were fed normally. Mice in the model group were given 1-2 unpredictable behavioral stimuli every day. […] When the same stimulation is continuous, the stimulation method is changed to ensure that the same stimulation is not continuous, and the model construction period is 42 days.

[7] = test system: CUMS depression model mice; assay: Sucrose preference test in CUMS depression model mice; format: in vivo, C57BL/6J mice; details: 10 mg/kg oral once a day, 14th day, in words
Text: as §1

[8] = test system: CUMS depression model mice; assay: Open field test in CUMS depression model mice; format: in vivo, C57BL/6J mice; details: 10 mg/kg oral once a day, 28 days; model 327.22±161.39 cm
Text: as §1

[9] = test system: Nrf2, HO-1, BDNF, and TrkB in the hippocampus; assay: Western blot of hippocampal proteins in CUMS depression model mice; format: in vivo; details: in words

COc1cc(/C=C2\CN(C(C)C)C/C(=C\c3cc(Cl)c(O)c(OC)c3)C2=O)cc(Cl)c1O [CAK05, 3,5-bis ((E)-3-chloro-4-hydroxy-5-methoxybenzylidene)-1-isopropylpiperidin-4-one]
solubility [1]: 0.14 mg/100 g
IC50 values of ABTS captured [2]: 369.1 µg/mL
cytotoxicity to PC12 cells [3]: a great influence on the activity of PC12 cells
Rank (cytotoxicity standard) 24 h ([3]; PC12, 3.75 μM): 1
Relative growth rate (%) 24 h ([3]; PC12, 3.75 μM): 89.59 ± 2.85%
Rank (cytotoxicity standard) 48 h ([3]; PC12, 3.75 μM): 2
Relative growth rate (%) 48 h ([3]; PC12, 3.75 μM): 61.38±0.91%
Rank (cytotoxicity standard) 24 h ([3]; PC12, 7.5 μM): 2
Relative growth rate (%) 24 h ([3]; PC12, 7.5 μM): 68.98±2.27%
Rank (cytotoxicity standard) 48 h ([3]; PC12, 7.5 μM): 2
Relative growth rate (%) 48 h ([3]; PC12, 7.5 μM): 51.45 ± 1.44%
Rank (cytotoxicity standard) 24 h ([3]; PC12, 15 μM): 2
Relative growth rate (%) 24 h ([3]; PC12, 15 μM): 62.32 ± 3.54%
Rank (cytotoxicity standard) 48 h ([3]; PC12, 15 μM): 3
Relative growth rate (%) 48 h ([3]; PC12, 15 μM): 22.26 ± 1.14%
Rank (cytotoxicity standard) 24 h ([3]; PC12, 30 μM): 2
Relative growth rate (%) 24 h ([3]; PC12, 30 μM): 56.50 ± 1.99%
Rank (cytotoxicity standard) 48 h ([3]; PC12, 30 μM): 4
Relative growth rate (%) 48 h ([3]; PC12, 30 μM): 15.43 ± 0.32%
Rank (cytotoxicity standard) 24 h ([3]; PC12, 60 μM): 3
Relative growth rate (%) 24 h ([3]; PC12, 60 μM): 41.84 ± 0.40%
Rank (cytotoxicity standard) 48 h ([3]; PC12, 60 μM): 4
Relative growth rate (%) 48 h ([3]; PC12, 60 μM): 11.06 ± 0.87%
effect on survival of H2O2-damaged PC12 cells ([4]; 3.75-60 μM drug): failed to show the potential to restore cell viability
effect on viability of CORT-damaged PC12 cells [5]: did not show the potential to restore cell viability

COc1cc(/C=C2\CN(C)C/C(=C\c3cc(Cl)c(O)c(OC)c3)C2=O)cc(Cl)c1O [CAK07, 3,5-bis ((E)-3-chloro-4-hydroxy-5-methoxybenzylidene)-1-methylpiperidin-4-one]
solubility [1]: 34.77 mg/100 g
IC50 values of ABTS captured [2]: 197.3 µg/mL
cytotoxicity to PC12 cells [3]: high
Rank (cytotoxicity standard) 24 h ([3]; PC12, 3.75 μM): 1
Relative growth rate (%) 24 h ([3]; PC12, 3.75 μM): 99.04 ± 1.89%
Rank (cytotoxicity standard) 48 h ([3]; PC12, 3.75 μM): 1
Relative growth rate (%) 48 h ([3]; PC12, 3.75 μM): 82.45 ± 2.34%
Rank (cytotoxicity standard) 24 h ([3]; PC12, 7.5 μM): 1
Relative growth rate (%) 24 h ([3]; PC12, 7.5 μM): 76.49 ± 0.75%
Rank (cytotoxicity standard) 48 h ([3]; PC12, 7.5 μM): 3
Relative growth rate (%) 48 h ([3]; PC12, 7.5 μM): 46.41±0.69%
Rank (cytotoxicity standard) 24 h ([3]; PC12, 15 μM): 2
Relative growth rate (%) 24 h ([3]; PC12, 15 μM): 60.78±0.55%
Rank (cytotoxicity standard) 48 h ([3]; PC12, 15 μM): 3
Relative growth rate (%) 48 h ([3]; PC12, 15 μM): 30.99 ± 0.02%
Rank (cytotoxicity standard) 24 h ([3]; PC12, 30 μM): 2
Relative growth rate (%) 24 h ([3]; PC12, 30 μM): 53.24 ± 0.51%
Rank (cytotoxicity standard) 48 h ([3]; PC12, 30 μM): 3
Relative growth rate (%) 48 h ([3]; PC12, 30 μM): 30.46 ± 0.54%
Rank (cytotoxicity standard) 24 h ([3]; PC12, 60 μM): 3
Relative growth rate (%) 24 h ([3]; PC12, 60 μM): 49.53 ± 0.31%
Rank (cytotoxicity standard) 48 h ([3]; PC12, 60 μM): 4
Relative growth rate (%) 48 h ([3]; PC12, 60 μM): 24.20 ± 0.74%
effect on survival of H2O2-damaged PC12 cells ([4]; 7.5 μM drug): a certain cytoprotective effect
effect on viability of CORT-damaged PC12 cells [5]: did not show the potential to restore cell viability

CNCCC(Oc1ccc(C(F)(F)F)cc1)c1ccccc1 (stereo not drawn) [Flu, fluoxetine, reference compound]
cell survival rate ([4]; 7.5 μM drug with 585.8 μM H2O2, 24 h): 41.92±0.66%
effect on viability of CORT-damaged PC12 cells [5]: did not show the effect of restoring CORT-damaged cells
forced swimming test, depressive symptoms / immobility time ([6]; 14th day, in words): did not show significant improvement in depressive symptoms
immobility time in the forced swimming test ([6]; 28 days): 130.42 ± 59.96 s
sucrose preference rate [7]: failed to significantly increase the sucrose preference rate
overall activity distance in the open field test [8]: 705.43±159.14 cm
expression of Nrf2, HO-1, BDNF and TrkB [9]: also increased
